Our source for the Activity values is ChEMBL document CHEMBL1141398, “Metastin (KiSS-1) mimetics identified from peptide structure-activity relationship-derived pharmacophores and directed small molecule database screening” (J Med Chem, 2007).

In this assay the target is KiSS-1 receptor (Homo sapiens, UniProt Q969F8). Briefly: Activity at metastin receptor expressed in HEK293 cells by measuring calcium release at 100 uM. In kind it is functional, cell-based.

Calls of active or inactive are those of the source. No cut-off for these calls is given here.

Sequence of KiSS-1 receptor (Q969F8 whole entry): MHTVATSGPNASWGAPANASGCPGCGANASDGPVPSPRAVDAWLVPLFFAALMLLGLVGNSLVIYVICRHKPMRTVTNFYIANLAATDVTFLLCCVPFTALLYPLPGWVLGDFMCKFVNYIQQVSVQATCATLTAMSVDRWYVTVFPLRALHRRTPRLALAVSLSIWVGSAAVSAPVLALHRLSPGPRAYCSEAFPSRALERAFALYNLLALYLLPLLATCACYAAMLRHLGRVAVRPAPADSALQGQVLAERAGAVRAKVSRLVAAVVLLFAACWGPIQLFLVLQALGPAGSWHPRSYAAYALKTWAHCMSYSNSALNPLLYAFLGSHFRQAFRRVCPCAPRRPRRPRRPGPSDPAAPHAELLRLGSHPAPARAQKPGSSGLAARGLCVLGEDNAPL

As for `CC(C)(C)CC(C)(C)c1ccc(OCCOCC[N+](C)(C)Cc2ccccc2)cc1` [BENZETHONIUM CHLORIDE], the outcome was Active.
